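Briefly, cells in 96-well plates were exposed to five compound concentrations for 48 h, and endpoints were estimated by linear interpolation. The concentration for full growth arrest is given as TGI.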
Tests used:
Test in all cases: DTP human tumour cell line panel, 48 h
[1] = test system: UACC-257 melanoma
[2] = test system: SN12C renal
[3] = test system: HL-60(TB) leukemia
[4] = test system: LOX IMVI melanoma
[5] = test system: K-562 leukemia
[6] = test system: U251 CNS
[7] = test system: T-47D breast
[8] = test system: NCI-H522 lung
[9] = test system: NCI/ADR-RES ovarian
[10] = test system: MDA-MB-435
[11] = test system: M14 melanoma
[12] = test system: HCC-2998 colon
[13] = test system: NCI-H226 lung
[14] = test system: OVCAR-5 ovarian
[15] = test system: KM12 colon
[16] = test system: MOLT-4 leukemia
[17] = test system: ACHN renal
[18] = test system: IGROV1 ovarian
[19] = test system: SW-620 colon
[20] = test system: EKVX NSCLC
[21] = test system: A549 NSCLC
[22] = test system: SR leukemia
[23] = test system: HOP-62 NSCLC
[24] = test system: SK-OV-3 ovarian
[25] = test system: NCI-H23 lung
[26] = test system: HOP-92 NSCLC
[27] = test system: CAKI-1 renal
[28] = test system: SF-295 CNS
[29] = test system: MCF7 breast
[30] = test system: UO-31 renal
[31] = test system: CCRF-CEM leukemia
[32] = test system: SK-MEL-28 melanoma
[33] = test system: MDA-N
[34] = test system: HT29 colon
[35] = test system: SF-539 CNS
[36] = test system: SK-MEL-2 melanoma
[37] = test system: RPMI-8226 leukemia
[38] = test system: SNB-19 CNS
[39] = test system: OVCAR-8 ovarian
[40] = test system: BT-549 breast
[41] = test system: 786-0 renal
[42] = test system: A498 renal
[43] = test system: TK-10 renal
[44] = test system: DU-145 prostate
[45] = test system: SF-268 CNS
[46] = test system: HCT-116 colon
[47] = test system: SK-MEL-5 melanoma
[48] = test system: OVCAR-4 ovarian
[49] = test system: HCT-15 colon
[50] = test system: PC-3 prostate
[51] = test system: UACC-62 melanoma
[52] = test system: COLO 205 colon
[53] = test system: MDA-MB-231 breast
[54] = test system: OVCAR-3 ovarian

## O=CNCCCN1CCN(CCCNC=O)CC1
[1]
  TGI: > 100 µM
[2]
  TGI: > 100 µM
[3]
  TGI: > 100 µM
[4]
  TGI: > 100 µM
[5]
  TGI: > 100 µM
[6]
  TGI: > 100 µM
[7]
  TGI: > 100 µM
[8]
  TGI: 4.07 µM
[9]
  TGI: > 100 µM
[10]
  TGI: > 100 µM
[11]
  TGI: > 100 µM
[12]
  TGI: > 100 µM
[13]
  TGI: > 100 µM
[14]
  TGI: > 100 µM
[15]
  TGI: > 100 µM
[16]
  TGI: > 100 µM
[17]
  TGI: > 100 µM
[18]
  TGI: > 100 µM
[19]
  TGI: > 100 µM
[20]
  TGI: > 100 µM
[21]
  TGI: > 100 µM
[22]
  TGI: > 100 µM
[23]
  TGI: > 100 µM
[24]
  TGI: > 100 µM
[25]
  TGI: > 100 µM
[26]
  TGI: > 100 µM
[27]
  TGI: > 100 µM
[28]
  TGI: > 100 µM
[29]
  TGI: > 100 µM
[30]
  TGI: > 100 µM
[31]
  TGI: > 100 µM
[32]
  TGI: > 100 µM
[33]
  TGI: > 100 µM
[34]
  TGI: > 100 µM
[35]
  TGI: > 100 µM
[36]
  TGI: > 100 µM
[37]
  TGI: > 100 µM
[38]
  TGI: > 100 µM
[39]
  TGI: > 100 µM
[40]
  TGI: > 100 µM
[41]
  TGI: > 100 µM
[42]
  TGI: > 100 µM
[43]
  TGI: > 100 µM
[44]
  TGI: > 100 µM
[45]
  TGI: 9.78 µM
[46]
  TGI: > 100 µM
[47]
  TGI: > 100 µM
[48]
  TGI: > 100 µM
[49]
  TGI: > 100 µM
[50]
  TGI: > 100 µM
[51]
  TGI: > 100 µM
[52]
  TGI: > 100 µM
[53]
  TGI: > 100 µM
[54]
  TGI: > 100 µM
